Experimental data taken from US20130053430A1, “MODULATION OF CETP EXPRESSION” (Isis Pharmaceuticals, Inc., priority 2010, published 2013).
e = 2'-O-(2-methoxyethyl) (MOE); d = 2'-deoxy (DNA)

Columns and labels:
[1] = system: human CETP mRNA; experiment: Liver CETP mRNA in huCETP transgenic mice, normal chow (Example 5); assay type: in vivo; settings: 50 mg/kg i.p. twice per week for 6 weeks, relative to PBS control
Experimental: Male huCETP transgenic mice were maintained on a 12-hour light/dark cycle and fed ad libitum normal Purina mouse chow. Animals were acclimated for at least 7 days in the research facility before initiation of the experiment. Antisense oligonucleotides (ASOs) were prepared in buffered saline (PBS) and sterilized by filtering through a 0.2 micron filter. Oligonucleotides were dissolved in 0.9% PBS for injection.
(§1) The mice were divided into five treatment groups. The first four groups received intraperitoneal injections of ISIS 349511, ISIS 349512, ISIS 349515, or ISIS 349517 at a dose of 50 mg/kg twice per week for 6 weeks. The fifth group received intraperitoneal injections of saline twice weekly for 6 weeks.
Twenty four hours after the final dose, the animals were sacrificed and liver tissue was isolated. Liver RNA was isolated for real-time PCR analysis of CETP. Two primer probe sets, hCETP (forward sequence […], designated herein as SEQ ID NO: 118; reverse sequence […], designated herein as SEQ ID NO: 119; probe sequence TGCGGACCGATGCCCCTGAX, designated herein as SEQ ID NO: 120) and hCETP2_LTS00182 (forward sequence […], designated herein as SEQ ID NO: 38; reverse sequence GGCTCACGCCTTTGCTGTT, designated herein as SEQ ID NO: 39: probe sequence CGGCTCGAGGTAGTGTTTACAGCCCTCX, designated herein as SEQ ID NO: 40), were used. These primer probe sets target the CETP mRNA transcript at different regions. As presented in Table 7, treatment with antisense oligonucleotides reduced CETP mRNA expression. The primer probe sets were used individually and collectively to measure CETP mRNA expression and gave similar results in all three cases. The RNA expression levels were normalized to murine Cyclophilin, a house-keeping gene, which is constitutively expressed. Cyclophilin levels were measured using the primer probe set described in Table 2. The results are expressed as percent inhibition of CETP mRNA, relative to the PBS control.

[2] = system: CETP mRNA; experiment: Liver CETP mRNA in huApoB/huCETP/mLDLr mouse model for cardiovascular disease (Example 7); assay type: in vivo, human; settings: huApoB+/−huCETP+/−mLDLr+/− mice (Groups B-E); ASO 25 mg/kg s.c. twice per week, nicotinic acid 2 g/kg/day s.c. + 1% in diet, 6 weeks; relative to PBS control (Group A)
Excerpt: The saline-injected group served as the control group to which oligonucleotide-treated groups were compared. […] This group served a negative control for the effects of the antisense oligonucleotides against CETP. The groups are further described in Table 27, and are designated letters A-F, by which they will be referred from henceforth.

[3] = Body and organ weights of huCETP transgenic mice (Example 5); assay type: in vivo; settings: 50 mg/kg i.p. twice per week
Experimental: as §1
The body weights of the mice were measured pre-dose and regularly during the treatment period. The body weights are presented in Table 10, and are expressed in grams.

[4] = system: CETP mRNA; experiment: Dose response, liver CETP mRNA in huCETP transgenic mice on Western diet (Example 9); assay type: in vivo, human; settings: s.c. 6 weeks
Experimental: Male transgenic mice were maintained on a 12-hour light/dark cycle and were fed ad libitum the Western diet (TD88137; 42% cal from fat, 0.2% cholesterol; Harlan Laboratories, Indianapolis, Ind.). Animals were acclimated for at least 7 days in the research facility before initiation of the experiment and were maintained on this diet throughout the study period. Antisense oligonucleotides (ASOs) were prepared in buffered saline (PBS) and sterilized by filtering through a 0.2 micron filter. Oligonucleotides were dissolved in 0.9% PBS for injection.
(§2) Another group received subcutaneous injections of control oligonucleotide ISIS 141923 at a dose of 50 mg/kg/week for 6 weeks. One group of mice received subcutaneous injections of PBS for 6 weeks. The PBS-injected group served as the control group to which treatment groups were compared.
Twenty four hours after the final dose, the animals were sacrificed and liver tissue was isolated. Liver RNA was isolated for real-time PCR analysis of CETP. The primer probe sets hCETP and hCETP2_LTS00182 were individually used to measure CETP levels. As presented in Table 43, treatment with ISIS 349517 reduced CETP mRNA expression in a dose-dependent manner. Both primer probe sets produced similar results. The RNA expression levels were normalized to murine Cyclophilin. The results are expressed as percent inhibition of CETP mRNA, relative to the PBS control.

[5] = system: CETP activity; experiment: CETP activity assay kit, dose response (Example 9); assay type: in vivo, human; settings: huCETP transgenic mice, Western diet, s.c. 6 weeks
Experimental: as §2
CETP activity levels were measured using a CETP activity assay kit (Roar Biomedical Inc.).

Row | Substance | Percent inhibition of liver CETP mRNA expression, Combined primer probe sets [1] [%] | Percent inhibition of liver CETP mRNA expression, Primer probe set hCETP [1] [%] | Percent inhibition of liver CETP mRNA expression, Primer probe set hCETP2_LTS00182 [1] [%] | Percent inhibition of liver CETP mRNA expression [2] [%] | Body weights ([3]; Week 0) [grams] | Body weights ([3]; Week 1) [grams] | Body weights ([3]; Week 2) [grams] | Body weights ([3]; Week 4) [grams] | Body weights ([3]; week 6) [grams] | Organ weights, Kidney ([3]; week 6) [mg] | Organ weights, Liver ([3]; week 6) [g] | Organ weights, Spleen ([3]; week 6) [mg] | Percent inhibition of liver CETP mRNA expression, PPset hCETP ([4]; Dose 50 mg/kg/wk) [%] | Percent inhibition of liver CETP mRNA expression, PPset hCETP2_LTS00182 ([4]; Dose 50 mg/kg/wk) [%] | Percent inhibition of CETP activity ([5]; Dose 50 mg/kg/wk) [%] | also measured
1 | ISIS 349511: 5-10-5 MOE gapmer CCCGACCTCCTTGGAGACTT (sugars from the 5' end e5 d10 e5, backbone and methylation of C not given here) | 88 | 90 | 86 | 70 | 19 | 21 | 23 | 25 | 26 | 312.5 | 1.3 | 76.0 |  |  |  | 
2 | ISIS 141923: CCTTCCCTGAAGGTTCCTCC, 5-10-5 MOE gapmer, a control oligonucleotide which has no known murine target (sugars from the 5' end e5 d10 e5, backbone and methylation of C not given here) [reference compound] |  |  |  |  |  |  |  |  |  |  |  |  | 0 | 0 | 2 | 
3 | ISIS 349517: 5-10-5 MOE gapmer CAGCACTTTAATGCCAGTGG (sugars from the 5' end e5 d10 e5, backbone and methylation of C not given here) | 97 | 99 | 95 | 86 | 25 | 27 | 28 | 28 | 29 | 355.5 | 1.7 | 89.0 | 92 | 96 | 77 | Percent inhibition of liver CETP mRNA expression, PPset hCETP ([4]; Dose 1.5 mg/kg/wk): 59%; Percent inhibition of liver CETP mRNA expression, PPset hCETP2_LTS00182 ([4]; Dose 1.5 mg/kg/wk): 59%; Percent inhibition of liver CETP mRNA expression, PPset hCETP ([4]; Dose 5 mg/kg/wk): 87%; Percent inhibition of liver CETP mRNA expression, PPset hCETP2_LTS00182 ([4]; Dose 5 mg/kg/wk): 87%; Percent inhibition of liver CETP mRNA expression, PPset hCETP ([4]; Dose 15 mg/kg/wk): 91%; Percent inhibition of liver CETP mRNA expression, PPset hCETP2_LTS00182 ([4]; Dose 15 mg/kg/wk): 95%; Percent inhibition of CETP activity ([5]; Dose 1.5 mg/kg/wk): 33%; Percent inhibition of CETP activity ([5]; Dose 5 mg/kg/wk): 59%; Percent inhibition of CETP activity ([5]; Dose 15 mg/kg/wk): 76%
